The test system of this experiment is L1210 leukemia ip in BDF1 mice, survival T/C. Nature of the experiment: NCI In Vivo Anticancer Drug Screen. Data for tumor model L1210 Leukemia (intraperitoneal) in B6D2F1 (BDF1) mice. Conditions: endpoint: mean survival time, higher = longer survival. An outline of the steps: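 Survival endpoint. Drug-treated group vs vehicle group, expressed as T divided by C. Tumor passaged by transplantation.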

Where [1] appears, read: dose: 100.0 mg/kg/injection, schedule: Q01DX009 (ip), vehicle: Klucel (hydroxypropylcellulose) (HPC).
Setting [2] is: dose: 200.0 mg/kg/injection, schedule: Q01DX009 (ip), vehicle: Klucel (hydroxypropylcellulose) (HPC).

Values joined by “and” are separate entries in the source; they are usually repeats but may differ in a detail not shown here. Identical values can stand only once. Toxic doses and inconclusive results are not listed.

Consider `O=[N+]([O-])c1cc([N+](=O)[O-])c(Nc2cccc3ccccc23)c([N+](=O)[O-])c1`, for which the T/C is, setting by setting: (dose: 50.0 mg/kg/injection, schedule: Q01DX009 (ip), vehicle: Klucel (hydroxypropylcellulose) (HPC)) 94 % of control; under setting [1], 99 % of control; (dose: 100.0 mg/kg/injection, schedule: Q04DX003 (ip), vehicle: Klucel (hydroxypropylcellulose) (HPC)) 100 % of control; under setting [2], 100 % of control; (dose: 200.0 mg/kg/injection, schedule: Q04DX003 (ip), vehicle: Klucel (hydroxypropylcellulose) (HPC)) 102 % of control; (dose: 400.0 mg/kg/injection, schedule: Q04DX003 (ip), vehicle: Klucel (hydroxypropylcellulose) (HPC)) 102 % of control.

Take `NC(c1ccccc1)c1ccccc1`: the T/C reads like this: (dose: 100.0 mg/kg/injection, schedule: Q04DX003 (ip), vehicle: saline) 104 % of control; (dose: 200.0 mg/kg/injection, schedule: Q04DX003 (ip), vehicle: saline) 95 % of control.

For `O=NN(CCCl)C(=O)NC1CCC(O)CC1` (stereo not given), the T/C runs as follows: (dose: 6.25 mg/kg/injection, schedule: Q01DX001 (ip), vehicle: saline with Tween-80) 121 % of control; (dose: 12.5 mg/kg/injection, schedule: Q01DX001 (ip), vehicle: saline with Tween-80) 189 % of control; (dose: 12.5 mg/kg/injection, schedule: Q01DX001 (ip), vehicle: saline) 172 % of control and 239 % of control; (dose: 13.0 mg/kg/injection, schedule: Q01DX001 (ip), vehicle: saline) 384 % of control; (dose: 20.0 mg/kg/injection, schedule: Q01DX001 (ip), vehicle: saline) 494 % of control; (dose: 25.0 mg/kg/injection, schedule: Q01DX001 (ip), vehicle: saline with Tween-80) 211 % of control. For the same molecule, the T/C runs as follows: (dose: 25.0 mg/kg/injection, schedule: Q01DX001 (ip), vehicle: saline) 198 % of control and 210 % of control and 253 % of control; (dose: 26.0 mg/kg/injection, schedule: Q01DX001 (ip), vehicle: saline) 401 % of control; (dose: 30.0 mg/kg/injection, schedule: Q01DX001 (ip), vehicle: saline) 494 % of control; (dose: 40.0 mg/kg/injection, schedule: Q01DX001 (ip), vehicle: saline) 435 % of control; (dose: 44.0 mg/kg/injection, schedule: Q01DX001 (ip), vehicle: saline) 293 % of control; (dose: 50.0 mg/kg/injection, schedule: Q01DX001 (ip), vehicle: saline with Tween-80) 264 % of control. Also, the T/C is, setting by setting: (dose: 50.0 mg/kg/injection, schedule: Q01DX001 (ip), vehicle: saline) 252 % of control and 113 % of control and 176 % of control; (dose: 60.0 mg/kg/injection, schedule: Q01DX001 (ip), vehicle: saline) 240 % of control; (dose: 100.0 mg/kg/injection, schedule: Q01DX001 (ip), vehicle: saline with Tween-80) 92 % of control; (dose: 100.0 mg/kg/injection, schedule: Q01DX001 (ip), vehicle: saline) 105 % of control and 99 % of control and 110 % of control; (dose: 200.0 mg/kg/injection, schedule: Q01DX001 (ip), vehicle: saline with Tween-80) 87 % of control; (dose: 200.0 mg/kg/injection, schedule: Q01DX001 (ip), vehicle: saline) 103 % of control and 95 % of control and 106 % of control.

As for `O=C(Nc1cccc(C(F)(F)F)c1)Oc1ccccc1F`, the T/C is 91 % of control under setting [1] and 92 % of control under setting [2].

Turning to `CCCCN(C(=O)C(F)(F)F)C(C)(C)C(SSSC(c1cccs1)C(C)(C)N(CCCC)C(=O)C(F)(F)F)c1cccs1` (stereo not given), the T/C was 94 % of control (dose: 100.0 mg/kg/injection, schedule: Q01DX009 (ip), vehicle: saline sonified); 90 % of control (dose: 100.0 mg/kg/injection, schedule: Q04DX003 (ip), vehicle: saline sonified); 96 % of control (dose: 200.0 mg/kg/injection, schedule: Q01DX009 (ip), vehicle: saline sonified); 93 % of control (dose: 200.0 mg/kg/injection, schedule: Q04DX003 (ip), vehicle: saline sonified); 90 % of control (dose: 400.0 mg/kg/injection, schedule: Q04DX003 (ip), vehicle: saline sonified).

On to `COc1cc(-c2ccc(Nc3ccccc3C(=O)O)c(OC)c2)ccc1Nc1ccccc1C(=O)O`, for which the T/C by setting is: (dose: 6.0 mg/kg/injection, schedule: Q01DX006 (iv), vehicle: carboxymethylcellulose (CMC)) 111 % of control; (dose: 12.0 mg/kg/injection, schedule: Q01DX006 (iv), vehicle: carboxymethylcellulose (CMC)) 106 % of control; (dose: 13.0 mg/kg/injection, schedule: Q01DX Z (ip), vehicle: saline) 122 % of control; (dose: 20.0 mg/kg/injection, schedule: Q01DX Z (ip), vehicle: saline) 114 % of control; (dose: 25.0 mg/kg/injection, schedule: Q01DX006 (iv), vehicle: carboxymethylcellulose (CMC)) 107 % of control; (dose: 25.0 mg/kg/injection, schedule: Q01DX Z (ip), vehicle: carboxymethylcellulose (CMC)) 103 % of control. Besides, the T/C reads like this: (dose: 29.0 mg/kg/injection, schedule: Q01DX Z (ip), vehicle: saline) 116 % of control; (dose: 37.5 mg/kg/injection, schedule: Q01DX006 (iv), vehicle: carboxymethylcellulose (CMC)) 108 % of control; (dose: 44.0 mg/kg/injection, schedule: Q01DX Z (ip), vehicle: carboxymethylcellulose (CMC)) 104 % of control and 112 % of control; (dose: 44.0 mg/kg/injection, schedule: Q01DX Z (ip), vehicle: methylcellulose (MC)) 100 % of control; (dose: 44.0 mg/kg/injection, schedule: Q01DX Z (ip), vehicle: saline) 117 % of control and 122 % of control; (dose: 45.0 mg/kg/injection, schedule: Q01DX Z (ip), vehicle: carboxymethylcellulose (CMC)) 104 % of control. Also, the T/C is 106 % of control (dose: 50.0 mg/kg/injection, schedule: Q01DX006 (iv), vehicle: carboxymethylcellulose (CMC)); 98 % of control (dose: 50.0 mg/kg/injection, schedule: Q01DX015 (ip), vehicle: saline); 97 % of control and 101 % of control (dose: 50.0 mg/kg/injection, schedule: Q01DX Z (ip), vehicle: carboxymethylcellulose (CMC)); 102 % of control (dose: 64.0 mg/kg/injection, schedule: Q01DX Z (ip), vehicle: carboxymethylcellulose (CMC)); 110 % of control (dose: 66.0 mg/kg/injection, schedule: Q01DX Z (ip), vehicle: carboxymethylcellulose (CMC)); 105 % of control (dose: 66.0 mg/kg/injection, schedule: Q01DX Z (ip), vehicle: methylcellulose (MC)). The T/C reads like this: (dose: 66.0 mg/kg/injection, schedule: Q01DX Z (ip), vehicle: saline) 109 % of control and 114 % of control; (dose: 98.0 mg/kg/injection, schedule: Q01DX Z (ip), vehicle: methylcellulose (MC)) 98 % of control; (dose: 98.0 mg/kg/injection, schedule: Q01DX Z (ip), vehicle: saline) 97 % of control; (dose: 99.0 mg/kg/injection, schedule: Q01DX Z (ip), vehicle: carboxymethylcellulose (CMC)) 100 % of control; (dose: 100.0 mg/kg/injection, schedule: Q01DX015 (ip), vehicle: saline) 96 % of control; (dose: 100.0 mg/kg/injection, schedule: Q01DX Z (ip), vehicle: saline) 119 % of control. Further, the T/C runs as follows: (dose: 147.0 mg/kg/injection, schedule: Q01DX Z (ip), vehicle: methylcellulose (MC)) 110 % of control; (dose: 147.0 mg/kg/injection, schedule: Q01DX Z (ip), vehicle: saline) 100 % of control; (dose: 150.0 mg/kg/injection, schedule: Q01DX Z (ip), vehicle: carboxymethylcellulose (CMC)) 95 % of control; (dose: 200.0 mg/kg/injection, schedule: Q01DX015 (ip), vehicle: saline) 101 % of control; (dose: 200.0 mg/kg/injection, schedule: Q01DX Z (ip), vehicle: carboxymethylcellulose (CMC)) 103 % of control and 106 % of control; (dose: 200.0 mg/kg/injection, schedule: Q01DX Z (oral), vehicle: carboxymethylcellulose (CMC)) 103 % of control. Besides, the T/C by setting is: (dose: 220.0 mg/kg/injection, schedule: Q01DX Z (ip), vehicle: methylcellulose (MC)) 98 % of control; (dose: 220.0 mg/kg/injection, schedule: Q01DX Z (ip), vehicle: saline) 108 % of control; (dose: 334.0 mg/kg/injection, schedule: Q01DX Z (ip), vehicle: saline) 120 % of control; (dose: 400.0 mg/kg/injection, schedule: Q01DX015 (ip), vehicle: saline) 96 % of control; (dose: 400.0 mg/kg/injection, schedule: Q01DX Z (oral), vehicle: carboxymethylcellulose (CMC)) 103 % of control; (dose: 800.0 mg/kg/injection, schedule: Q01DX Z (oral), vehicle: carboxymethylcellulose (CMC)) 95 % of control. Moreover, the T/C (dose: 1600.0 mg/kg/injection, schedule: Q01DX Z (oral), vehicle: carboxymethylcellulose (CMC)) is 111 % of control.

Source of the values: PubChem BioAssay AID248 (DTP/NCI, 2004).
